Data published in US10561670B2, “Compositions comprising acidic extracts of mastic gum” (REGENERA PHARMA LTD., priority 2010, dated 2020).

Test system: rat MCAO model
Assay: Rat MCAO stroke model, adhesive removal test
Type: in vivo
Conditions: for Time to remove the adhesive tape from the contralateral paw: day 27, subcutaneous 25 microliters twice a week, each compound 0.65% (w/w) in cottonseed oil, versus vehicle and base line (FIG. 14A)
Excerpt: For the experiments described herein, the animals are anesthetized using ketamine/xylazine solution. The animal's neck is then shaved and a midline incision is made in the skin of the neck, and the tissue underneath is bluntly dissected. The right common carotid artery (CCA) and its junction with the external carotid artery (ECA) and internal carotid artery (ICA) are exposed by blunt dissection. The CCA is then transiently closed by positioning around it a 3-0 silk suture material. The ECA is permanently occluded with the same type of suture material. A third closure, transient, is also done in the ICA with 3-0 silk suture material.
A small hole is cut in the ECA and the nylon thread is inserted into the ICA while avoiding entrance into the pterygopalatine artery. The thread is inserted 21-25 mm until a slight resistance is felt. Then a 3-0 silk suture knot secures the thread.
Following surgery, the rats are returned to their cages and remain under a heating lamp until they awake.
Two parameters are monitored and recorded during the ischemic surgery procedure: animal's core temperature and blood glucose level (BGL).
Core temperature is monitored using rectal probe (YSI USA model 400) connected to a measuring unit (Cole Parmer model 8402-00) during the entire surgery period. Ischemic insult is started when rectal temperature is 37-38° C.
The rats of the different groups were injected twice a week subcutaneous with 25 microliters of designated test item. First injection was given three hours after stroke induction.
• Vehicle: cottonseed oil • IMDA: 0.65% (w/w) in cottonseed oil • MDA: 0.65% (w/w) in cottonseed oil • IMDA and MDA: each 0.65% (w/w) in cottonseed oil • IMDA, MDA and OA: each 0.65% (w/w) in cottonseed oil MDA alone; IMDA alone; a combination of MDA+IMDA; and a combination of OA+MDA+IMDA, were tested using a rat MCAO model, for their therapeutic capacity. Stroke induced rats were treated with each of the tested compounds and the improvement of their sensorimotor abilities were tested using the adhesive removal test. […] The time to remove the tape is recorded. […]

SMILES	Time to remove the adhesive tape from the contralateral paw	Baseline fold change, removal of adhesive tape from the contralateral paw (day 27 relative to base line score (FIG. 14B)) [fold]
CC(=CCCC(C)C1CCC2(C)C3=C(CCC12C)C1(C)CCC(=O)C(C)(C)C1CC3)C(=O)O (stereo not drawn) [IMDA, Isomasticadienoic acid]	able to improve the score of treated rats	10
C/C(=C\CC[C@H](C)[C@@H]1CC[C@]2(C)C3=CC[C@H]4C(C)(C)C(=O)CC[C@]4(C)[C@H]3CC[C@@]12C)C(=O)O [MDA, Masticadienoic acid]	only slightly better than the vehicle control	–
